In patent US20230295152A1 (SENDA BIOSCIENCES, INC., priority 2019, published 2023):

molecular target: T1, AHR (Homo sapiens, UniProt P35869); test: DRE-Luciferase Reporter Assay, HepG2 AhR-Lucia reporter cells; type: cell-based; settings: with AHR activating ligand at EC50, read-out: HepG2-Luc IC50
T1 construct: other cell line with a DRE-luciferase reporter stably transfected; endogenous in cells; host or cells: HepG2 AhR-Lucia reporter cells
T1 sequence (P35869 11-848): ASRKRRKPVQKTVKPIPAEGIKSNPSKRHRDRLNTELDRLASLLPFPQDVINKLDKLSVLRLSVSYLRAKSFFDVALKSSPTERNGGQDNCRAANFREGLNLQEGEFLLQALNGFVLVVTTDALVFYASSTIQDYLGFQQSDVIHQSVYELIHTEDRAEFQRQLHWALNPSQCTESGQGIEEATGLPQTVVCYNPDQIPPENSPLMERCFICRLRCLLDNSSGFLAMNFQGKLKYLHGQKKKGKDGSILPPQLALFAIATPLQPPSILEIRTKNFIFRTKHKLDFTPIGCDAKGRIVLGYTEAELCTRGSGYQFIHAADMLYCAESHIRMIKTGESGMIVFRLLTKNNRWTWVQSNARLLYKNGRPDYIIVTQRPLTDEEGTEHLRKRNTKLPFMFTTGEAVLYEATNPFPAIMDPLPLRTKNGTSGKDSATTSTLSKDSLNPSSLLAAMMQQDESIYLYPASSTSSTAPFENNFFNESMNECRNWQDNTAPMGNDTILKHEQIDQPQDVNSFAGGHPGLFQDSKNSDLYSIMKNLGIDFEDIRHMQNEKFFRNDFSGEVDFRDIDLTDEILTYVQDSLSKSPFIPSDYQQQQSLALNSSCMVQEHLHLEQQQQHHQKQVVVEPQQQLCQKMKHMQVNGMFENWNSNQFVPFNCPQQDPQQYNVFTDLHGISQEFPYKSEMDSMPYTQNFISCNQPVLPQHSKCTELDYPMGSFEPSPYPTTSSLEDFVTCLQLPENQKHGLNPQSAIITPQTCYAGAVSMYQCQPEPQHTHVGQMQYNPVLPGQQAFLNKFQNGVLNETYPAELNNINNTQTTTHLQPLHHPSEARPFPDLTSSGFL
Description: AHR binds to Dioxin Responsive Elements (DRE) upstream of genes that it activates. One measure of AHR activity is activation of a reporter gene, such as luciferase, downstream of one or multiple DRE elements. Luciferase activity will reflect activation and inhibition of AHR in the cells expressing his reporter. 20000 Human HepG2 liver carcinoma—AhR-Lucia reporter cells or Human HT29 colon adenocarcinoma—AhR reporter cells or other cell line with a DRE-luciferase reporter stably transfected were plated in Eagle's Minimal Essential Medium, 10% heat-inactivated FBS, 1× non-essential amino acids Pen-Strep (10,000 U/mL) and Normocin (100 ug/mL) in plates (96-well, 384-well or other plates) and incubated overnight at 37° C. in a CO2 incubator and treated with and without AhR antagonists at a log dilution starting at 100 uM.
After 1 hr that cells were plated an AHR activating ligand, such as TCDD, kynurenine, ITE (2-(1H-indole-3-ylcarbonyl)-4-thiazolecarboxylic methyl ester), VAF347, BNF (beta-naphthoflavone), FICZ (6-formylindolo(3,2-b) carbazole) or other AHR ligands at their specific EC50 concentration, were added to the cells with or without AHR antagonist.
Cells were incubated for 24 or 48 hours or another time point and then, supernatant was analyzed for determination of luciferase activity as a read-out of the AHR activation or inhibition. Luciferase was measured with the commercial kit QUANTI-Luc™ assay solution kit from Invivogen following the manufacturer's instructions.
The level of luciferase with only agonist ligand added was the maximum signal while the luciferase with […] was the minimum signal. IC50 values were determined as the concentration which inhibits half of the luciferase activity.

SMILES | IC50
O=c1c2cc(-c3ccc(Cl)cc3)nc(-c3cccnc3)c2ncn1C1COCC1O (racemic) [Compound 29] | < 100 nM
O=c1c2cc(-c3ccc(Cl)cc3)nc(-c3cccnc3)c2ncn1C1COCC1O (racemic) [Compound 32] | < 100 nM
O=c1c2cc(-c3ccc(Cl)cc3)nc(-c3cccc(F)c3)c2ncn1C[C@H](O)C(F)(F)F (stereo in doubt) [Compound 41] | < 100 nM
O=c1c2cc(-c3ccc(Cl)cc3)nc(-c3cccc(F)c3)c2ncn1C[C@@H](O)C(F)(F)F (stereo in doubt) [Compound 42] | < 100 nM
C[C@@H](CO)n1cnc2c(-c3ccc(=O)[nH]c3)nc(-c3ccc(Cl)cc3)cc2c1=O [Compound 2] | 100 to 500 nM
C[C@@H](CO)n1cnc2c(-c3cccc4c3OCO4)nc(-c3ccc(Cl)cc3)cc2c1=O [Compound 3] | 100 to 500 nM
C[C@@H](CO)n1cnc2c(-c3ccncc3)nc(-c3ccc(C(F)(F)F)nc3)cc2c1=O [Compound 4] | 100 to 500 nM
C[C@@H](CO)n1cnc2c(-c3cncc(F)c3)nc(-c3ccc(C(F)(F)F)cc3)cc2c1=O [Compound 5] | < 100 nM
O=c1c2cc(-c3cccnc3)nc(-c3cccnc3)c2ncn1CC(O)C(F)(F)F (stereo not drawn) [Compound 10] | 100 to 500 nM
C[C@@H](CO)n1cnc2c(-c3cccnc3)nc(Cl)cc2c1=O [Compound 11, (S)-6-chloro-3-(1-hydroxypropan-2-yl)-8-(pyridin-3-yl)pyrido[3,4-d]pyrimidin-4(3H)-one] | > 500 nM
O=c1c2cc(-c3ccc(Cl)cc3)nc(-c3cccnc3)c2ncn1CC(O)C(F)(F)F (stereo not drawn) [Compound 13] | < 100 nM
O=c1c2cc(-c3ccc(OC(F)(F)F)cc3)nc(-c3cccnc3)c2ncn1CC(O)C(F)(F)F (stereo not drawn) [Compound 14] | < 100 nM
Cn1cc(-c2nc(-c3ccc(Cl)cc3)cc3c(=O)n(CC(O)C(F)(F)F)cnc23)cn1 (stereo not drawn) [Compound 15] | < 100 nM
Cn1cc(-c2cc3c(=O)n(CC(C)(C)O)cnc3c(-c3cnn(C)c3)n2)cn1 [Compound 19] | > 500 nM
C[C@@H](CO)n1cnc2c(-c3cccnc3)nc(-c3cccnc3)cc2c1=O [Compound 20] | 100 to 500 nM
C[C@@H](CO)n1cnc2c(-c3cnn(C)c3)nc(-c3ccccc3)cc2c1=O [Compound 26] | 100 to 500 nM
Cn1cnc2c(-c3cccnc3)nc(-c3ccc(OC(F)(F)F)cc3)cc2c1=O [Compound 28] | < 100 nM
CC(C)[C@@H](CO)n1cnc2c(-c3cc(F)cc(F)c3)nc(-c3cc(F)cc(F)c3)cc2c1=O [Compound 35] | < 100 nM
C[C@@H](n1cnc2c(-c3cccc(F)c3)nc(-c3ccc(Cl)cc3)cc2c1=O)C(C)(C)O [Compound 39] | < 100 nM
Cc1ccc(-c2cc3c(=O)n([C@@H](C)COCc4ccccc4)cnc3c(-c3cccc(F)c3)n2)cc1 [Compound 40, 3-[(1S)-2-benzyloxy-1-methyl-ethyl]-8-(3-fluorophenyl)-6-(p-tolyl)pyrido[3,4-d]pyrimidin-4-one] | > 500 nM
COC[C@H](C)n1cnc2c(-c3cccnc3)nc(-c3ccc(C)cc3)cc2c1=O [Compound 45, (S)-3-(1-methoxypropan-2-yl)-8-(pyridin-3-yl)-6-(p-tolyl)pyrido[3,4-d]pyrimidin-4(3H)-one] | < 100 nM
COC(=O)c1ccc(-c2cc3c(=O)n([C@@H](C)CO)cnc3c(-c3cccnc3)n2)cn1 [Compound 52] | > 500 nM
C[C@@H](CO)n1cnc2c(-c3cccnc3)nc(-c3cnsc3)cc2c1=O [Compound 53] | 100 to 500 nM
C[C@@H](CO)n1cnc2c(-c3cnsc3)nc(-c3cnsc3)cc2c1=O [Compound 56] | 100 to 500 nM

Results, then the compound that gave them:

IC50 | SMILES
> 500 nM | CC(C)(O)Cn1cnc2c(-c3cccnc3)nc(-c3cccnc3)cc2c1=O [Compound 59]
100 to 500 nM | Cc1cc(Cl)ccc1-c1cc2c(=O)n(CC(C)(C)O)cnc2c(-c2cnn(C)c2)n1 [Compound 61]
< 100 nM | C[C@@H](CO)n1cnc2c(-c3cn[nH]c3)nc(-c3ccc(C(F)(F)F)nc3)cc2c1=O [Compound 62]
100 to 500 nM | Cc1ncccc1-c1nc(-c2ccc(C(F)(F)F)nc2)cc2c(=O)n([C@@H](C)CO)cnc12 [Compound 63]
> 500 nM | Cc1ccncc1-c1nc(-c2ccc(C(F)(F)F)nc2)cc2c(=O)n([C@@H](C)CO)cnc12 [Compound 64]
100 to 500 nM | Cc1ncsc1-c1cc2c(=O)n([C@@H](C)CO)cnc2c(-c2cccnc2)n1 [Compound 65]
< 100 nM | CC(C)c1ncc(-c2cc3c(=O)n([C@@H](C)CO)cnc3c(-c3cccnc3)n2)s1 [Compound 67]
100 to 500 nM | C[C@@H](CO)n1cnc2c(-c3ccc(C(F)(F)F)nc3)nc(-c3ccc(C(F)(F)F)nc3)cc2c1=O [Compound 69]
< 100 nM | O=c1c2cc(-c3ccc(OC(F)(F)F)cc3)nc(-c3cccnc3)c2ncn1CCO [Compound 72]
> 500 nM | C[C@@H](CO)n1cnc2c(-c3ccc(=O)n(C)c3)nc(-c3ccc(Cl)cc3)cc2c1=O [Compound 73]
100 to 500 nM | Cc1cc(C(F)(F)F)ncc1-c1cc2c(=O)n([C@@H](C)CO)cnc2c(-c2cccnc2)n1 [Compound 75]
100 to 500 nM | C[C@@H](CO)n1cnc2c(-c3cnn(C)c3)nc(-c3cccnc3)cc2c1=O [Compound 76]
> 500 nM | C[C@@H](CO)n1cnc2c(-c3cccnc3)nc(C3=CCCCC3)cc2c1=O [Compound 77, (S)-6-(Cyclohex-1-en-1-yl)-3-(1-hydroxypropan-2-yl)-8-(pyridin-3-yl)pyrido[3,4-d]pyrimidin-4(3H)-one]
100 to 500 nM | C[C@@H](CO)n1cnc2c(-c3cncc(F)c3)nc(-c3cncc(F)c3)cc2c1=O [Compound 78]
> 500 nM | CC(C)(O)Cn1cnc2c(-c3cccnc3)nc(-c3cccnc3C(F)(F)F)cc2c1=O [Compound 80]
> 500 nM | C[C@@H](CO)n1cnc2c(-c3cccnc3)nc(-c3cncs3)cc2c1=O [Compound 84]
< 100 nM | CC(C)(O)Cn1cnc2c(-c3cccnc3)nc(-c3cnc(C(F)(F)F)s3)cc2c1=O [Compound 87]
< 100 nM | CC(C)[C@@H](CO)n1cnc2c(-c3cccc(F)c3)nc(-c3ccc(Cl)cc3)cc2c1=O [Compound 90]
100 to 500 nM | C[C@@H](CO)n1cnc2c(C3=CCCN(C)C3)nc(-c3ccc(C(F)(F)F)nc3)cc2c1=O [Compound 91]
100 to 500 nM | Cc1ncc(-c2cc3c(=O)n([C@@H](C)CO)cnc3c(-c3cccnc3)n2)cn1 [Compound 93]
< 100 nM | CC(C)(O)Cn1cnc2c(-c3cnn(C(F)(F)F)c3)nc(-c3ccc(C(F)(F)F)nc3)cc2c1=O [Compound 94]
< 100 nM | CC(C)(O)Cn1cnc2c(-c3cccnc3)nc(-c3cnc(C(F)(F)F)nc3)cc2c1=O [Compound 96]
> 500 nM | C[C@@H](CO)n1cnc2c(-c3cccnc3)nc(-c3ccc(C(=O)O)nc3)cc2c1=O [Compound 97]
< 100 nM | Cc1ccc(-c2cc3c(=O)n([C@@H](C)CO)cnc3c(-c3cccnc3)n2)cn1 [Compound 98]
> 500 nM | C[C@@H](CO)n1cnc2c(-c3cccnc3)nc(N3CCCCC3)cc2c1=O [Compound 100]
< 100 nM | O=c1c2cc(-c3ccc(C(F)(F)F)nc3)nc(-c3cccnc3)c2ncn1C1CCS(=O)(=O)C1 (stereo not drawn) [Compound 106, 3-(1,1-dioxidotetrahydrothiophen-3-yl)-8-(pyridin-3-yl)-6-(6-(trifluoromethyl)pyridin-3-yl)pyrido[3,4-d]pyrimidin-4(3H)-one]
< 100 nM | O=c1c2cc(-c3ccc(C(F)(F)F)nc3)nc(-c3cccnc3)c2ncn1[C@@H]1CCS(=O)(=O)C1 [Compound 107, (R)-3-(1,1-dioxidotetrahydrothiophen-3-yl)-8-(pyridin-3-yl)-6-(6-(trifluoromethyl)pyridin-3-yl)pyrido[3,4-d]pyrimidin-4(3H)-one]
